Measurements published in ChEMBL document CHEMBL1142040, “Melanocortin subtype-4 receptor agonists containing a piperazine core with substituted aryl sulfonamides” (Bioorg Med Chem Lett, 2005).
Values joined by “and” are separate entries in the source; they are usually repeats but may differ in a detail not shown here. Equal entries are not always repeated.

What was measured:
Melanocortin receptor 4 [1] = molecular target: T1, Melanocortin receptor 4 (Homo sapiens, UniProt P32245); test: Effective concentration determined against melanocortin-4 receptor; assay type: functional
Melanocortin receptor 4 [2] = molecular target: T1, Melanocortin receptor 4; test: In vitro inhibitory concentration required against melanocortin 4 receptor using [125I]NDP-MSH as radioligand
[3] = Maximum plasma level concentration was determined in mice; assay type: ADME, organism-based; conditions: mouse
[4] = Tmax of compound was determined in mice; assay type: ADME; conditions: mouse, in vivo
[5] = Half life of compound was determined in mice; assay type: ADME; conditions: mouse, in vivo
[6] = Brain concentration of compound was determined in mice; assay type: ADME; conditions: mouse, in vivo
Melanocortin receptor 5 = Melanocortin receptor 5 (Homo sapiens, UniProt P33032); test: Effective concentration determined against melanocortin-5 receptor; assay type: functional
[7] = Volume of distribution of compound was determined in mice; assay type: ADME, organism-based; conditions: mouse, in vivo
Melanocortin receptor 3 = Melanocortin receptor 3 (Homo sapiens, UniProt P41968); test: Effective concentration determined against melanocortin-3 receptor; assay type: functional
[8] = Bioavailability concentration of compound was determined in mice; assay type: ADME, organism-based; conditions: mouse, in vivo
[9] = Clearance value of compound was determined in mice; assay type: ADME, organism-based; conditions: mouse, in vivo
[10] = molecular target: Melanocortin receptor (M4 and M5) (Homo sapiens) (UniProt P32245+P33032); test: Selectivity for melanocortin 4 receptor compared to melanocortin 5 receptor in vitro; assay type: functional
Melanocortin receptor (M4 and M5) (Homo sapiens), sequence (P32245 whole entry, looked up): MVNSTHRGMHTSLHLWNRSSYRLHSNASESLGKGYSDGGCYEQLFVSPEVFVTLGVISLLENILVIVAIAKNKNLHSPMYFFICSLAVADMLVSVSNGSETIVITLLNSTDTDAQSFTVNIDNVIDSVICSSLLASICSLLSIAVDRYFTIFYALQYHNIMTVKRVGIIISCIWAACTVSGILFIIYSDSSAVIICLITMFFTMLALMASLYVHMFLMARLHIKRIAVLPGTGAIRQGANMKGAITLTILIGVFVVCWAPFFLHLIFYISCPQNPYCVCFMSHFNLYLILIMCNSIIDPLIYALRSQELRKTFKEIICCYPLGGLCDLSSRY
Melanocortin receptor (M4 and M5) (Homo sapiens), sequence (P33032 whole entry, looked up): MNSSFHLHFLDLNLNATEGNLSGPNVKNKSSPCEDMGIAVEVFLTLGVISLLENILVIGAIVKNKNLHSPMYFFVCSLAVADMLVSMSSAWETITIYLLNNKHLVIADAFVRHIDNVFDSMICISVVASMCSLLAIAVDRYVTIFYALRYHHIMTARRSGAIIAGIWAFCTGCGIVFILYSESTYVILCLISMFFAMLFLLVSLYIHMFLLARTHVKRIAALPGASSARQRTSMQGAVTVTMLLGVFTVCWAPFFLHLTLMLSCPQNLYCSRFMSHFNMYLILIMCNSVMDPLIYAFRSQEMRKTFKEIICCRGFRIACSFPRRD

T1 sequence (P32245 whole entry): as the sequence (P32245 whole entry, looked up) above
Melanocortin receptor 5, sequence (P33032 whole entry): as the sequence (P33032 whole entry, looked up) above
Melanocortin receptor 3, sequence (P41968 whole entry): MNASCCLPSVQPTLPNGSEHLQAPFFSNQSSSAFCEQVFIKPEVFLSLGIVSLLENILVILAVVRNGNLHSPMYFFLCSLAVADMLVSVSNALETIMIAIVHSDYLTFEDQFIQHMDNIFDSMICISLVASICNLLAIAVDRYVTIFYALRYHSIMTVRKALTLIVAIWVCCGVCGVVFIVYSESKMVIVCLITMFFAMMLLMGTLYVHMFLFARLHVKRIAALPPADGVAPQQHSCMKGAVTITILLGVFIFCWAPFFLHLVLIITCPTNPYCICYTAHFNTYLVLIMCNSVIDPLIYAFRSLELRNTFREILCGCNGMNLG

SMILES: CN(c1ccccc1N1CCN(C(=O)[C@@H](Cc2ccc(Cl)cc2)NC(=O)[C@@H]2Cc3ccccc3CN2)CC1)S(C)(=O)=O
- EC50 (Melanocortin receptor 4 [1]): 4 nM
- IC50 (Melanocortin receptor 4 [2]): 210 nM

SMILES: CS(=O)(=O)N(CC1CC1)c1ccccc1N1CCN(C(=O)[C@@H](Cc2ccc(Cl)cc2)NC(=O)c2ccc3ccccc3c2)CC1
- EC50 (Melanocortin receptor 4 [1]): 63 nM
- IC50 (Melanocortin receptor 4 [2]): 280 nM

SMILES: CS(=O)(=O)N(CC1CC1)c1ccccc1N1CCN(C(=O)[C@@H](Cc2ccc(Cl)cc2)NC(=O)c2cc3ccccc3cn2)CC1
- EC50 (Melanocortin receptor 4 [1]): 18 nM
- IC50 (Melanocortin receptor 4 [2]): 410 nM

SMILES: CN1CCC(C(=O)N[C@H](Cc2ccc(Cl)cc2)C(=O)N2CCN(c3ccccc3N(CC3CC3)S(C)(=O)=O)CC2)CC1
- EC50 (Melanocortin receptor 4 [1]): 12 nM
- IC50 (Melanocortin receptor 4 [2]): 120 nM

SMILES: CCCN(c1ccccc1N1CCN(C(=O)[C@@H](Cc2ccc(Cl)cc2)NC(=O)[C@@H]2Cc3ccccc3CN2)CC1)S(C)(=O)=O
- Cmax [3]: 1400 ng/mL
- Tmax [4]: 15 min
- EC50 (Melanocortin receptor 4 [1]): 0.44 nM
- T1/2 [5]: 26.4 min
- Cbrain [6]: 130 ng/g
- EC50 (Melanocortin receptor 5): 210 nM
- V2/F [7]: 19 L/kg
- EC50 (Melanocortin receptor 3): > 10000 nM
- bioavailability [8]: 20%
- Cl/F [9]: 30 mL/min/kg

SMILES: CC(C)CCN1CC(C(=O)N[C@H](Cc2ccc(Cl)cc2)C(=O)N2CCN(c3ccccc3N(CC3CC3)S(C)(=O)=O)CC2)C1
- EC50 (Melanocortin receptor 4 [1]): 49 nM
- IC50 (Melanocortin receptor 4 [2]): 83 nM

SMILES: CS(=O)(=O)Nc1ccccc1N1CCN(C(=O)[C@@H](Cc2ccc(Cl)cc2)NC(=O)[C@@H]2Cc3ccccc3CN2)CC1
- EC50 (Melanocortin receptor 4 [1]): 11 nM
- EC50 (Melanocortin receptor 5): 230 nM
- IC50 (Melanocortin receptor 4 [2]): 340 nM
- EC50 (Melanocortin receptor 3): > 10000 nM
- Selectivity [10]: 21

SMILES: CS(=O)(=O)N(CCN)c1ccccc1N1CCN(C(=O)[C@@H](Cc2ccc(Cl)cc2)NC(=O)[C@@H]2Cc3ccccc3CN2)CC1
- EC50 (Melanocortin receptor 4 [1]): < 0.1 nM
- EC50 (Melanocortin receptor 5): 79 nM
- IC50 (Melanocortin receptor 4 [2]): 35 nM
- EC50 (Melanocortin receptor 3): > 10000 nM
- Selectivity [10]: 79

SMILES: CCN1CCC(C(=O)N[C@H](Cc2ccc(Cl)cc2)C(=O)N2CCN(c3ccccc3N(CC3CC3)S(C)(=O)=O)CC2)CC1
- EC50 (Melanocortin receptor 4 [1]): 8.6 nM
- IC50 (Melanocortin receptor 4 [2]): 110 nM

SMILES: CS(=O)(=O)N(CC1CC1)c1ccccc1N1CCN(C(=O)[C@@H](Cc2ccc(Cl)cc2)NC(=O)c2ccc3ncccc3c2)CC1
- EC50 (Melanocortin receptor 4 [1]): 27 nM
- IC50 (Melanocortin receptor 4 [2]): 29 nM

SMILES: CS(=O)(=O)N(CC1CC1)c1ccccc1N1CCN(C(=O)[C@@H](Cc2ccc(Cl)cc2)NC(=O)C2CN(C3CCCCC3)C2)CC1
- EC50 (Melanocortin receptor 4 [1]): 1.8 nM
- IC50 (Melanocortin receptor 4 [2]): 67 nM

SMILES: O=C(N[C@H](Cc1ccc(Cl)cc1)C(=O)N1CCN(c2ccccc2NS(=O)(=O)Cc2ccccc2)CC1)[C@@H]1Cc2ccccc2CN1
- EC50 (Melanocortin receptor 4 [1]): 65 nM
- IC50 (Melanocortin receptor 4 [2]): 720 nM

SMILES: CS(=O)(=O)N(CC1CC1)c1ccccc1N1CCN(C(=O)[C@@H](Cc2ccc(Cl)cc2)NC(=O)c2cnc3ccccc3c2)CC1
- EC50 (Melanocortin receptor 4 [1]): 60 nM
- IC50 (Melanocortin receptor 4 [2]): 94 nM

SMILES: O=C(N[C@H](Cc1ccc(Cl)cc1)C(=O)N1CCN(c2ccccc2NS(=O)(=O)c2ccccc2)CC1)[C@@H]1Cc2ccccc2CN1
- EC50 (Melanocortin receptor 4 [1]): 120 nM
- IC50 (Melanocortin receptor 4 [2]): 730 nM

SMILES: CS(=O)(=O)N(CC1CC1)c1ccccc1N1CCN(C(=O)[C@@H](Cc2ccc(Cl)cc2)NC(=O)[C@@H]2Cc3ccccc3CN2)CC1
- EC50 (Melanocortin receptor 4 [1]): 0.58 nM and 0.6 nM
- EC50 (Melanocortin receptor 5): 170 nM
- IC50 (Melanocortin receptor 4 [2]): 61 nM
- EC50 (Melanocortin receptor 3): 7000 nM
- Selectivity [10]: 170
